Results reported in US20250041315A1, “LEVONORGESTREL BUTANOATE FORMULATION AND METHODS RELATING THERETO” (The USA, as Represented by the Secretary, Department of …, priority 2021, published 2025).

Assays:
[1] = injections at 3-month intervals; cited from earlier work
[2] = Effect of gamma irradiation sterilization on spray dried LNGB particles (colour, qualitative HPLC); format: physicochemical
Protocol: In this comparative example, a sample of LNGB particles was prepared using a gamma irradiation step to sterilize spray dried particles. The LNGB particles were obtained by spray drying and then were subjected to gamma irradiation to evaluate the effect of irradiation on the particles. […] Qualitative HPLC was performed to compare the peak profiles of the LNGB particles before and after irradiation. FIGS. 2-5 show HPLC traces of the sample before (FIG. 2) and after (FIGS. 3-5) irradiation. Irradiated samples generated three major peaks, A, D, and E, at >0.15%, as well as a small peak, C, at ˜0.07%. […] In N2- and Ar-purged irradiated samples (FIGS. 4 and 5, respectively), peaks F and G were not resolved from other peaks (either degradation products or gradient artifacts).

| Compound | typical failure rate [1] [%] | major impurity peaks A, D, and E (HPLC) after irradiation ([2]; irradiated samples) [%] | small impurity peak C (HPLC) after irradiation ([2]; irradiated samples) [%] | colour of particles after gamma irradiation ([2]; spray dried particles, gamma irradiated, initial particles white/translucent) |
| --- | --- | --- | --- | --- |
| CC(=O)O[C@]1(C(C)=O)CC[C@H]2[C@@H]3C[C@H](C)C4=CC(=O)CC[C@]4(C)[C@H]3CC[C@@]21C [DMPA, Depomedroxyprogesterone Acetate] | 4 | – | – | – |
| C#C[C@]1(OC(=O)CCC)CC[C@H]2[C@@H]3CCC4=CC(=O)CC[C@@H]4[C@H]3CC[C@@]21CC [LNGB particles, Levonorgestrel butanoate] | – | > 0.15 | ~0.07 | yellow color |
